Measurements as given in US20230089867A1, “CYCLIC PENTAMER COMPOUNDS AS PROPROTEIN CONVERTASE SUBTILISIN/KEXIN TYPE 9 (PCSK9) INHIBITORS FOR THE TREATMENT OF METABOLIC DISORDER” (Novartis AG, priority 2018, published 2023).

Biological target: human PCSK9 (Homo sapiens, UniProt Q8NBP7)
Assay: PCSK9 ligand binding TR-FRET assay (interference with binding of human PCSK9 to human LDLR)
Conditions: for Max % inhibition: PCSK9 FRET assay, efficacy (Amax), 100% = 1 uM unlabeled human PCSK9, 0% = DMSO; for IC50: TR-FRET, human PCSK9 Alexa Fluor 647 / human LDLR extracellular domain-Europium Kryptate, read-out: PCSK9 FRET Assay IC50
Summary of the method: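 Threefold compound dilutions were pre-incubated 30 min with PCSK9, after which 4 nM Europium Kryptate-tagged human LDLR ectodomain was added for a further 2 h.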

human PCSK9, sequence (Q8NBP7 153-692): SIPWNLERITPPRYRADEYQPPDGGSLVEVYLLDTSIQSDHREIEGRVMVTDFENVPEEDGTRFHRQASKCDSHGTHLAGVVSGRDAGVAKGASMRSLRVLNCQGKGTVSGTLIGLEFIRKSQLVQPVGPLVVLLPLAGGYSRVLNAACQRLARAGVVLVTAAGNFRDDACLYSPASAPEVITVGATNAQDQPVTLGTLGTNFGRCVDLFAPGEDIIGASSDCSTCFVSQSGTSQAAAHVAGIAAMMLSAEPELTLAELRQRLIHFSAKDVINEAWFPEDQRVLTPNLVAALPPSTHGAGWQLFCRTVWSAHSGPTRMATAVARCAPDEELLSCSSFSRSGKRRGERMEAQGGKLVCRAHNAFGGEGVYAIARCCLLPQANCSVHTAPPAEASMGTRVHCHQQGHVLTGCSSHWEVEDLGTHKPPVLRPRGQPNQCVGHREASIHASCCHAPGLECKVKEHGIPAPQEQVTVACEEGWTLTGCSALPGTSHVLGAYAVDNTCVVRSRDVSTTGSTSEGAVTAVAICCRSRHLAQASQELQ
human PCSK9, sequence (Q8NBP7 31-152 partner limits assumed): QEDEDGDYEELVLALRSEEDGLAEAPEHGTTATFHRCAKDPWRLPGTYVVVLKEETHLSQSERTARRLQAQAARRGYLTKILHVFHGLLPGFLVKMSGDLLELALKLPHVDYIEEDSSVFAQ

Row | SMILES | Max % inhibition [%] | IC50 [nM]
1 | COC[C@@H]1NC(=O)[C@H](C)N(Cc2ccc(Cl)cc2Oc2ccc(-c3cnc(CN(C)C)n3C)cn2)C(=O)C[C@@H](Cc2ccccc2)C(=O)N(C)[C@H]2CCCC[C@@H]2NC(=O)C[C@H](Cc2ccc(Cl)cc2)N(C)C1=O [Compound 273, (4S,7S,10S,14R,16aS,20aS)-14-benzyl-11-(4-chloro-2-((5-(2-((dimethylamino)methyl)-1-methyl-1H-imidazol-5-yl)pyridin-2-yl)oxy)benzyl)-4-(4-chlorobenzyl)-7-(methoxymethyl)-5,10,16-trimethylhexadecahydrobenzo[l][1,4,7,11,14]pentaazacyclooctadecine-2,6,9,12,15(3H)-pentaone] | 105.53 | 3
2 | COC[C@@H]1NC(=O)[C@H](C)N(Cc2ccc(Cl)cc2Oc2ccc(-c3cnc(CN(C)C)n3C)cc2)C(=O)CC(Cn2ccccc2=O)C(=O)N(C)[C@H]2CCCC[C@@H]2NC(=O)C[C@H](Cc2ccc(Cl)cc2)N(C)C1=O (stereo partly drawn) [Compound 275, (4S,7S,10S,16aS,20aS)-11-(4-chloro-2-(4-(2-((dimethylamino)methyl)-1-methyl-1H-imidazol-5-yl)phenoxy)benzyl)-4-(4-chlorobenzyl)-7-(methoxymethyl)-5,10,16-trimethyl-14-((2-oxopyridin-1(2H)-yl)methyl)hexadecahydrobenzo[l][1,4,7,11,14]pentaazacyclooctadecine-2,6,9,12,15(3H)-pentaone] | 102.47 | 0.8
3 | COC[C@@H]1NC(=O)[C@H](C)N(Cc2ccc(Cl)cc2Oc2ccc(-c3cnc(CN(C)C)n3C)cc2)C(=O)CC(Cn2ccccc2=O)C(=O)N(C)[C@H]2CCCC[C@@H]2NC(=O)C[C@H](Cc2ccc(Cl)cc2)N(C)C1=O (stereo partly drawn) [Compound 276, (4S,7S,10S,16aS,20aS)-11-(4-chloro-2-(4-(2-((dimethylamino)methyl)-1-methyl-1H-imidazol-5-yl)phenoxy)benzyl)-4-(4-chlorobenzyl)-7-(methoxymethyl)-5,10,16-trimethyl-14-((2-oxopyridin-1(2H)-yl)methyl)hexadecahydrobenzo[l][1,4,7,11,14]pentaazacyclooctadecine-2,6,9,12,15(3H)-pentaone] | 101.53 | 16.4
4 | Cc1c(CN(C)C)ncn1-c1ccc(Oc2cc(Cl)ccc2CN2C(=O)C[C@@H](Cc3ccccc3)C(=O)N(C)[C@H]3CCCC[C@@H]3NC(=O)C[C@H](Cc3ccc(Cl)cc3)N(C)C(=O)[C@H](CO)NC(=O)[C@@H]2C)cc1 [Compound 278, (4S,7S,10S,14R,16aS,20aS)-14-benzyl-11-(4-chloro-2-(4-(4-((dimethylamino)methyl)-5-methyl-1H-imidazol-1-yl)phenoxy)benzyl)-4-(4-chlorobenzyl)-7-(hydroxymethyl)-5,10,16-trimethylhexadecahydrobenzo[l][1,4,7,11,14]pentaazacyclooctadecine-2,6,9,12,15(3H)-pentaone] | 107.17 | 1.3
5 | COC[C@@H]1NC(=O)[C@H](C)N(Cc2ccc(Cl)cc2Oc2ccc(-c3cnc(CN(C)C)n3C)cc2)C(=O)C[C@@H](Cc2cccnc2)C(=O)N(C)[C@H]2CCCC[C@@H]2NC(=O)C[C@H](Cc2ccc(Cl)cc2)N(C)C1=O [Compound 280, (4S,7S,10S,14R,16aS,20aS)-11-(4-chloro-2-(4-(2-((dimethylamino)methyl)-1-methyl-1H-imidazol-5-yl)phenoxy)benzyl)-4-(4-chlorobenzyl)-7-(methoxymethyl)-5,10,16-trimethyl-14-(pyridin-3-ylmethyl)hexadecahydrobenzo[l][1,4,7,11,14]pentaazacyclooctadecine-2,6,9,12,15(3H)-pentaone] | 100.09 | 0.6
6 | C=Cc1ncc(-c2ccc(Oc3cc(Cl)ccc3CN3C(=O)C[C@@H](Cc4ccccc4)C(=O)N(C)[C@@H](C)CNC(=O)C[C@H](Cc4ccc(Cl)cc4)N(C)C(=O)[C@H](COC)NC(=O)[C@@H]3C)cc2)n1C [Compound 282, (2S,5S,8S,13S,16R)-16-benzyl-1-(4-chloro-2-(4-(1-methyl-2-vinyl-1H-imidazol-5-yl)phenoxy)benzyl)-8-(4-chlorobenzyl)-5-(methoxymethyl)-2,7,13,14-tetramethyl-1,4,7,11,14-pentaazacyclooctadecane-3,6,10,15,18-pentaone] | 60.78 | 6.1

The remaining compounds from weak to strong by IC50, led by results:

Row | Max % inhibition [%] | IC50 [nM] | SMILES
7 | 83.22 | 2.5 | C=CC[C@@H]1CC(=O)N(Cc2ccc(Cl)cc2Oc2ccc(-c3cnc(CN(C)C)n3C)cc2)[C@@H](CCCN2CCOCC2)C(=O)N[C@@H](COC)C(=O)N(C)[C@@H](Cc2ccc(Cl)cc2)CC(=O)N[C@H]2CCCC[C@@H]2N(C)C1=O [Compound 277, (4S,7S,10S,14R,16aS,20aS)-14-allyl-11-(4-chloro-2-(4-(2-((dimethylamino)methyl)-1-methyl-1H-imidazol-5-yl)phenoxy)benzyl)-4-(4-chlorobenzyl)-7-(methoxymethyl)-5,16-dimethyl-10-(3-morpholinopropyl)hexadecahydrobenzo[l][1,4,7,11,14]pentaazacyclooctadecine-2,6,9,12,15(3H)-pentaone]
8 | 105.87 | 1.6 | COC[C@@H]1NC(=O)[C@H](CCCN2CCOCC2)N(Cc2ccc(Cl)cc2Oc2ccc(-c3cnc(CN(C)C)n3C)cc2)C(=O)C[C@@H](Cc2ccccc2)C(=O)N(C)[C@@H](C)[C@H](C)NC(=O)C[C@H](Cc2ccc(Cl)cc2)N(C)C1=O [Compound 283, (2S,5S,8S,12S,13S,16R)-16-benzyl-1-(4-chloro-2-(4-(2-((dimethylamino)methyl)-1-methyl-1H-imidazol-5-yl)phenoxy)benzyl)-8-(4-chlorobenzyl)-5-(methoxymethyl)-7,12,13,14-tetramethyl-2-(3-morpholinopropyl)-1,4,7,11,14-pentaazacyclooctadecane-3,6,10,15,18-pentaone]
9 | 89.62 | 1 | COC[C@@H]1NC(=O)[C@H](C)N(Cc2ccc(Cl)cc2Oc2ccc(-c3cnc(CN4CCCC4)n3C)c(C)c2)C(=O)C[C@@H](Cc2ccccc2)C(=O)N(C)[C@@H](C)CNC(=O)C[C@H](Cc2ccc(Cl)cc2)N(C)C1=O [Compound 281, (2S,5S,8S,13S,16R)-16-benzyl-1-(4-chloro-2-(3-methyl-4-(1-methyl-2-(pyrrolidin-1-ylmethyl)-1H-imidazol-5-yl)phenoxy)benzyl)-8-(4-chlorobenzyl)-5-(methoxymethyl)-2,7,13,14-tetramethyl-1,4,7,11,14-pentaazacyclooctadecane-3,6,10,15,18-pentaone]
10 | 98.50 | 0.9 | COC[C@@H]1NC(=O)[C@H](C)N(Cc2ccc(Cl)cc2Oc2ccc(-c3cnc(CN(C)C)n3C)cc2)C(=O)C[C@@H](Cc2ccccn2)C(=O)N(C)[C@H]2CCCC[C@@H]2NC(=O)C[C@H](Cc2ccc(Cl)cc2)N(C)C1=O [Compound 284, (4S,7S,10S,14R,16aS,20aS)-11-(4-chloro-2-(4-(2-((dimethylamino)methyl)-1-methyl-1H-imidazol-5-yl)phenoxy)benzyl)-4-(4-chlorobenzyl)-7-(methoxymethyl)-5,10,16-trimethyl-14-(pyridin-2-ylmethyl)hexadecahydrobenzo[l][1,4,7,11,14]pentaazacyclooctadecine-2,6,9,12,15(3H)-pentaone]
